In ChEMBL document CHEMBL5316326, “Discovery of a Novel Covalent EZH2 Inhibitor Based on Tazemetostat Scaffold for the Treatment of Ovarian Cancer” (J Med Chem, 2023):
The source made the active and inactive calls. No cut-off for these calls is given here.

What was measured:
PA-1 [1] = experiment: Antiproliferative activity against human PA-1 cells assessed as reduction in cell viability at 10 uM incubated for 3 days followed by compound washout and measured after 4 days by microscopy analysis; type: functional, cell-based; details: time 3.0 day
[2] = target: Protein arginine N-methyltransferase 7 (Homo sapiens) (UniProt Q9NVM4); experiment: Inhibition of PRMT7 (unknown origin) at 1 to 10 uM by AlphaLlSA assay; details: dose 1-10 µM
[3] = target: T1, Histone-lysine N-methyltransferase EZH2 (Homo sapiens, UniProt Q15910); experiment: Inhibition of EZH2 methyltransferase activity in human PA-1 cells assessed as reduction in H3K27me3 level at 0.3 to 5 uM incubated for 3 days by Western blot analysis; type: cell-based; details: dose 0.3-5 µM, time 3.0 day
PA-1 [4] = experiment: Induction of apoptosis in human PA-1 cells assessed as late apoptotic cells at 40 uM incubated for 48 hrs by AnnexinV-FITC/PI staining based flow cytometry analysis (Rvb= 3.09%); type: functional
ES-2 = experiment: Antiproliferative activity against human ES2 cells assessed as inhibition of cell proliferation incubated for 72 hrs by MTT assay; type: functional, cell-based; details: ES-2, 72 h
[5] = Half life in Sprague-Dawley rat at 5 mg/kg, iv and measured upto 24 hrs by LC-MS/MS analysis; type: ADME, organism-based; details: in vivo
PA-1 [6] = experiment: Induction of apoptosis in human PA-1 cells assessed as necrotic cells at 20 uM incubated for 48 hrs by AnnexinV-FITC/PI staining based flow cytometry analysis (Rvb= 1.48%); type: functional
[7] = Toxicity in BALB/C nude mouse xenografted with human PA-1 cells assessed as pathological changes in kidney at 75 to 150 mg/kg,po BID for 21 days by H&E staining based microscopic analysis; type: organism-based; details: in vivo, 504 h, dose 75-150 mg/kg, time 21 day
[8] = MRT(t) in Sprague-Dawley rat at 100 mg/kg, po and measured upto 24 hrs by LC-MS/MS analysis; type: ADME, organism-based; details: in vivo
[9] = Toxicity in BALB/C nude mouse xenografted with human PA-1 cells assessed as pathological changes in serum biochemical values at 75 to 150 mg/kg,po BID for 21 days; type: organism-based; details: in vivo, 504 h, dose 75-150 mg/kg, time 21 day
[10] = tested on: Histone-lysine N-methyltransferase EZH2 (Homo sapiens), Q15910 [Y641N]; details: dose 10.0 nM
Description: Inhibition of EZH2 Y614N mutant (unknown origin) at 10 nM by AlphaLlSA assay

[11] = target: N-lysine methyltransferase SMYD2 (Homo sapiens) (UniProt Q9NRG4); experiment: Inhibition of SMYD2 (unknown origin) at 1 to 10 uM by AlphaLlSA assay; details: dose 1-10 µM
BT-549 = experiment: Antiproliferative activity against human BT-549 cells assessed as inhibition of cell proliferation incubated for 72 hrs by MTT assay; type: functional, cell-based; details: BT-549, 72 h
SK-OV-3 = experiment: Antiproliferative activity against human SK-OV-3 cells assessed as inhibition of cell proliferation incubated for 72 hrs by MTT assay; type: functional, cell-based; details: SK-OV-3, 72 h
[12] = target: Protein arginine N-methyltransferase 5 (Homo sapiens) (UniProt O14744); experiment: Inhibition of PRMT5 (unknown origin) at 1 to 10 uM by AlphaLlSA assay; details: dose 1-10 µM
PA-1 [13] = experiment: Induction of apoptosis in human PA-1 cells assessed as early apoptotic cells at 5 uM incubated for 48 hrs by AnnexinV-FITC/PI staining based flow cytometry analysis (Rvb= 6.89%); type: functional
PA-1 [14] = experiment: Antitumor activity against human PA-1 cells xenografted in BALB/C nude mouse assessed as increase apoptosis by measuring cleaved caspase-3 positive cells at 75 to 150 mg/kg,po BID for 21 days by immunohistochemical analysis; type: functional, organism-based; details: dose 75-150 mg/kg, time 21.0 day
4T1 = experiment: Antiproliferative activity against mouse 4T1 cells assessed as inhibition of cell proliferation incubated for 72 hrs by MTT assay; type: functional, cell-based; details: 4T1, 72 h
[15] = target: T1, Histone-lysine N-methyltransferase EZH2; experiment: Covalent inhibition of EZH2 (unknown origin) assessed as slow change in dissociation rate preincubated for 60 mins followed by substrate addition and measured upto 90 mins using Mix-GL11 and 3H-SAM as substrate by spin column method; details: time > 150.0 min
[16] = MRT(t) in Sprague-Dawley rat at 5 mg/kg, iv and measured upto 24 hrs by LC-MS/MS analysis; type: ADME, organism-based; details: in vivo
[17] = Toxicity in BALB/C nude mouse xenografted with human PA-1 cells assessed as pathological changes in hematological parameters at 75 to 150 mg/kg,po BID for 21 days; type: organism-based; details: in vivo, 504 h, dose 75-150 mg/kg, time 21 day
PA-1 [18] = experiment: Induction of apoptosis in human PA-1 cells assessed as early apoptotic cells at 20 uM incubated for 48 hrs by AnnexinV-FITC/PI staining based flow cytometry analysis (Rvb= 6.89%); type: functional
PA-1 [19] = experiment: Induction of apoptosis in human PA-1 cells assessed as viable cells at 20 uM incubated for 48 hrs by AnnexinV-FITC/PI staining based flow cytometry analysis (Rvb= 88.53%); type: functional; details: read-out: Activity
PA-1 [20] = experiment: Antitumor activity against human PA-1 cells xenografted in BALB/C nude mouse assessed as tumor growth inhibition at 75 mg/kg,po BID for 21 days; type: functional; details: PA-1, 504 h, time 21 day, read-out: TGI
PA-1 [21] = experiment: Induction of apoptosis in human PA-1 cells assessed as late apoptotic cells at 10 uM incubated for 48 hrs by AnnexinV-FITC/PI staining based flow cytometry analysis (Rvb= 3.09%); type: functional
PA-1 [22] = experiment: Induction of apoptosis in human PA-1 cells assessed as viable cells at 40 uM incubated for 48 hrs by AnnexinV-FITC/PI staining based flow cytometry analysis (Rvb= 88.53%); type: functional; details: read-out: Activity
PA-1 [23] = experiment: Induction of apoptosis in human PA-1 cells assessed as necrotic cells at 40 uM incubated for 48 hrs by AnnexinV-FITC/PI staining based flow cytometry analysis (Rvb= 1.48%); type: functional
[24] = Half life in Sprague-Dawley rat at 100 mg/kg, po and measured upto 24 hrs by LC-MS/MS analysis; type: ADME, organism-based; details: in vivo
HEY = experiment: Antiproliferative activity against human HEY cells assessed as inhibition of cell proliferation incubated for 72 hrs by MTT assay; type: functional, cell-based
PA-1 [25] = experiment: Antitumor activity against human PA-1 cells xenografted in BALB/C nude mouse assessed as tumor growth inhibition at 150 mg/kg,po BID for 21 days; type: functional; details: PA-1, 504 h, time 21 day, read-out: TGI
[26] = target: N-lysine methyltransferase KMT5A (Homo sapiens) (UniProt Q9NQR1); experiment: Inhibition of SETD8 (unknown origin) at 1 to 10 uM by AlphaLlSA assay; details: dose 1-10 µM
PA-1 [27] = experiment: Induction of apoptosis in human PA-1 cells assessed as late apoptotic cells at 20 uM incubated for 48 hrs by AnnexinV-FITC/PI staining based flow cytometry analysis (Rvb= 3.09%); type: functional
OAW-42 = experiment: Antiproliferative activity against human OAW-42 cells assessed as inhibition of cell proliferation incubated for 72 hrs by MTT assay; type: functional, cell-based; details: OAW-42, 72 h
[28] = AUCt in Sprague-Dawley rat at 100 mg/kg, po and measured upto 24 hrs by LC-MS/MS analysis; type: ADME, organism-based; design: time < 24 hrs, dose 100 mg/kg, route po; details: in vivo
PA-1 [29] = experiment: Induction of apoptosis in human PA-1 cells assessed as necrotic cells at 10 uM incubated for 48 hrs by AnnexinV-FITC/PI staining based flow cytometry analysis (Rvb= 1.48%); type: functional

T1 sequence (Q15910 whole entry, looked up): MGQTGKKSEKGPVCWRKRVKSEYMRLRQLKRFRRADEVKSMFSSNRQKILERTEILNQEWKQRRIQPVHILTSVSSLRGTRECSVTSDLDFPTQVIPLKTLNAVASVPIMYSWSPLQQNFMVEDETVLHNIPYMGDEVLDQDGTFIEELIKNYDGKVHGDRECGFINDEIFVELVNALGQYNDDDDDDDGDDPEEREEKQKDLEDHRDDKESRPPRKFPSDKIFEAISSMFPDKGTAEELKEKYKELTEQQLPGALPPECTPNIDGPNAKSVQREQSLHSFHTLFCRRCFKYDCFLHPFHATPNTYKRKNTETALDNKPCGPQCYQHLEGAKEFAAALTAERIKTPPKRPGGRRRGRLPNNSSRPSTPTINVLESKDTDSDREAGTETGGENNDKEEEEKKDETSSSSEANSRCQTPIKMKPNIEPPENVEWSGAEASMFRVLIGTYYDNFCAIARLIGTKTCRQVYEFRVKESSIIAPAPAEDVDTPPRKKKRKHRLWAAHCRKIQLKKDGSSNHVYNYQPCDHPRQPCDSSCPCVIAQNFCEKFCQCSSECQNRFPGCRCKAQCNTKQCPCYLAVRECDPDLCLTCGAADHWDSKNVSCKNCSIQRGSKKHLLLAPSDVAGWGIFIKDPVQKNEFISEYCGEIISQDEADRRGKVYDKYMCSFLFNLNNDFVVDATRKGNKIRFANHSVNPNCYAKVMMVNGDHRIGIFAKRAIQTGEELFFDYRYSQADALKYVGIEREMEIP
Chain of Protein arginine N-methyltransferase 5 (Homo sapiens) (O14744 whole entry): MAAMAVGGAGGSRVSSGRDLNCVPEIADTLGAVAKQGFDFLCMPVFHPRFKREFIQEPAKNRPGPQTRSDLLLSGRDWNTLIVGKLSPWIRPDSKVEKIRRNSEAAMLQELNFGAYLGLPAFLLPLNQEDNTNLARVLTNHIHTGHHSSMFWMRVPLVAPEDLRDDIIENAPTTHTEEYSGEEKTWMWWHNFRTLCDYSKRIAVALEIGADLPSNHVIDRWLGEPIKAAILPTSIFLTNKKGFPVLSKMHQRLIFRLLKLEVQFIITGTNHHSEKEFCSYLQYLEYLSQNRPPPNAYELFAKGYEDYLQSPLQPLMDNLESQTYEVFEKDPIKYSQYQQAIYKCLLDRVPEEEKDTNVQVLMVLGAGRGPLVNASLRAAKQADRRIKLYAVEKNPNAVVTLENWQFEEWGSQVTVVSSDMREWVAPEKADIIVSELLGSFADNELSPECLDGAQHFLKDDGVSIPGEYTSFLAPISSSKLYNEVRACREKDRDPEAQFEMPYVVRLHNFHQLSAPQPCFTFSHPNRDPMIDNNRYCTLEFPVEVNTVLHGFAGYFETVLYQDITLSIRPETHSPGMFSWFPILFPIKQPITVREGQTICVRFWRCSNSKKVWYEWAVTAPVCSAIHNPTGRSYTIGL
Chain of Protein arginine N-methyltransferase 7 (Homo sapiens) (Q9NVM4 whole entry): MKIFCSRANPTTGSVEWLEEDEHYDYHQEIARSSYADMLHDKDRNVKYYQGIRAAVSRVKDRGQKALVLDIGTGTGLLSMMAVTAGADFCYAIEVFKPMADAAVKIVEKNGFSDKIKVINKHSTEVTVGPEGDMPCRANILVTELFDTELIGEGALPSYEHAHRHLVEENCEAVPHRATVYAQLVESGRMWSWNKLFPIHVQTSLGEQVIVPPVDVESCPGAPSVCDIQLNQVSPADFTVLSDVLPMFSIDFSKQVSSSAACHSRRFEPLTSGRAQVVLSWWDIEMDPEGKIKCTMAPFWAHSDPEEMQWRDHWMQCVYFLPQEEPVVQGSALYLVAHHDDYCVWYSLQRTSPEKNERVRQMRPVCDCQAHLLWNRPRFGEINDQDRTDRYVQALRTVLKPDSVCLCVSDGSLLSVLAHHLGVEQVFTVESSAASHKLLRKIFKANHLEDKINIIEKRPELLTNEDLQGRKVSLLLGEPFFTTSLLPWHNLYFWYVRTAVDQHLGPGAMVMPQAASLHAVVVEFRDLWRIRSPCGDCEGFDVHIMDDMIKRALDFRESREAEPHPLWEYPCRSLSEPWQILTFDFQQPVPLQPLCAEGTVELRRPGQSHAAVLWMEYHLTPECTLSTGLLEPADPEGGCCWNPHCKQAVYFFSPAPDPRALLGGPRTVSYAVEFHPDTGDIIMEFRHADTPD
Chain of N-lysine methyltransferase SMYD2 (Homo sapiens) (Q9NRG4 whole entry): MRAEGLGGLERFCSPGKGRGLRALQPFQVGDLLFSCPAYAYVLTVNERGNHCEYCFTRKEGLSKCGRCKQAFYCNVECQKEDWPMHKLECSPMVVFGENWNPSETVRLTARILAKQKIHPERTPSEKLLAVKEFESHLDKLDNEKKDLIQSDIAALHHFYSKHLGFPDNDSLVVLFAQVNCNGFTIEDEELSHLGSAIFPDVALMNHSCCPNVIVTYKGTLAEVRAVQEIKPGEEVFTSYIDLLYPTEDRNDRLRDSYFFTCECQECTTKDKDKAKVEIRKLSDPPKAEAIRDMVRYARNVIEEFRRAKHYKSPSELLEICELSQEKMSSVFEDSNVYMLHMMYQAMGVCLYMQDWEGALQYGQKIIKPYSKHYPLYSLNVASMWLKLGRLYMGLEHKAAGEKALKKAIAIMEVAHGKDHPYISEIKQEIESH
Chain of Histone-lysine N-methyltransferase EZH2 (Homo sapiens), Q15910 [Y641N] (Q15910 whole entry Y641N): as the sequence (Q15910 whole entry, looked up) above, with Y641N counted along it
Chain of N-lysine methyltransferase KMT5A (Homo sapiens) (Q9NQR1 whole entry): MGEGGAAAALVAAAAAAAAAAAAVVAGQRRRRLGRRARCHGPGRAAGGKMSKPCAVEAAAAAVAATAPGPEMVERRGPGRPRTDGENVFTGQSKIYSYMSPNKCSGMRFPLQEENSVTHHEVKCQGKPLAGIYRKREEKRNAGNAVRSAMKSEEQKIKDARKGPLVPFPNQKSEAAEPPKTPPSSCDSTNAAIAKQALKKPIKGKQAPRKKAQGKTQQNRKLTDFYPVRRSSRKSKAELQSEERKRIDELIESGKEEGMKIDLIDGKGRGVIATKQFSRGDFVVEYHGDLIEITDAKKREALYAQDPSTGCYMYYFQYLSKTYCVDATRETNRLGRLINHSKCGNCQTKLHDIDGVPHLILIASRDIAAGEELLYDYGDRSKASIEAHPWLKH

C=CC(=O)Nc1ccc(C)c(-c2cc(C(=O)NCc3c(C)cc(C)[nH]c3=O)c(C)c(N(CC)C3CCOCC3)c2)c1
Activity (PA-1 [1]): Active
inhibition [2]: inactive
inhibition [3]: Dose-Dependent Effect
Activity (PA-1 [4]): 2.21%
IC50 (ES-2): 36.4 µM
t1/2 [5]: 36.6 min
Activity (PA-1 [6]): 3.36%
Activity [7]: Non-Toxic
MRT last at 24 h [8]: 104 min
Activity [9]: Non-Toxic
inhibition [10]: Active
inhibition [11]: inactive
IC50 (BT-549): 18.9 µM
IC50 (SK-OV-3): 56.4 µM
inhibition [12]: inactive
Activity (PA-1 [13]): 10.39%
Activity (PA-1 [14]): Active
IC50 (4T1): 24.5 µM
inhibition [15]: Active
MRT(t) [16]: 15.6 min
Activity [17]: Non-Toxic
Activity (PA-1 [18]): 31.78%
viability at 20 µM (PA-1 [19]): 50.5%
inhibition in vivo at 75 mg/kg (PA-1 [20]): 45.3%
Activity (PA-1 [21]): 6.16%
viability at 40 µM (PA-1 [22]): 10.3%
Activity (PA-1 [23]): 0.34%
half-life [24]: 46.2 min
IC50 (HEY): 35.5 µM
inhibition in vivo at 150 mg/kg (PA-1 [25]): 78.2%
inhibition [26]: inactive
Activity (PA-1 [27]): 14.41%
IC50 (OAW-42): > 100 µM
AUC(0-t) at 24 h [28]: 12600 ng·h/mL
Activity (PA-1 [29]): 0.94%
